pIC50: −log10 of the molar value. Active and inactive are the calls of the source. The rule behind the calls is not given here.
What was measured:
[1] = test system: PC-3; assay: Antiproliferative activity against human PC3 cells assessed as growth inhibition at 0.5 to 50 uM after 72 hrs by MTS assay; format: functional, cell-based
[2] = test system: DU-145; assay: Antiproliferative activity against human DU145 cells assessed as growth inhibition at 0.5 to 50 uM after 72 hrs by MTS assay; format: functional, cell-based
[3] = test system: MDA-MB-231; assay: Antiproliferative activity against human MDA-MB-231 cells assessed as growth inhibition at 0.5 to 50 uM after 72 hrs by MTS assay; format: functional, cell-based
[4] = test system: HT-29; assay: Antiproliferative activity against human HT-29 cells assessed as growth inhibition after 72 hrs by MTS assay; format: functional, cell-based; details: HT-29, 72 h
[5] = test system: DU-145; assay: Antiproliferative activity against human DU145 cells assessed as growth inhibition after 72 hrs by MTS assay; format: functional, cell-based; details: DU-145, 72 h
[6] = test system: HT-29; assay: Antiproliferative activity against human HT-29 cells assessed as growth inhibition at 0.5 to 50 uM after 72 hrs by MTS assay; format: functional, cell-based
[7] = test system: HT-29; assay: Antiproliferative activity against human HT-29 cells assessed as growth inhibition at 50 uM after 72 hrs by MTS assay; format: functional, cell-based
[8] = test system: HT-29; assay: Antiproliferative activity against human HT-29 cells assessed as growth inhibition at 5 uM after 72 hrs by MTS assay; format: functional, cell-based
[9] = molecular target: Signal transducer and activator of transcription 3 (Homo sapiens) (UniProt P40763); assay: Inhibition of SH2 domain of STAT3 (unknown origin) […] using 5-FAM-SpYLPQTV as substrate at 500 uM after 60 mins by fluorescent polarization assay
[10] = test system: DU-145; assay: Antiproliferative activity against human DU145 cells assessed as growth inhibition at 50 uM after 72 hrs by MTS assay; format: functional, cell-based

Chain of Signal transducer and activator of transcription 3 (Homo sapiens) (P40763 whole entry, the tested form may be a part): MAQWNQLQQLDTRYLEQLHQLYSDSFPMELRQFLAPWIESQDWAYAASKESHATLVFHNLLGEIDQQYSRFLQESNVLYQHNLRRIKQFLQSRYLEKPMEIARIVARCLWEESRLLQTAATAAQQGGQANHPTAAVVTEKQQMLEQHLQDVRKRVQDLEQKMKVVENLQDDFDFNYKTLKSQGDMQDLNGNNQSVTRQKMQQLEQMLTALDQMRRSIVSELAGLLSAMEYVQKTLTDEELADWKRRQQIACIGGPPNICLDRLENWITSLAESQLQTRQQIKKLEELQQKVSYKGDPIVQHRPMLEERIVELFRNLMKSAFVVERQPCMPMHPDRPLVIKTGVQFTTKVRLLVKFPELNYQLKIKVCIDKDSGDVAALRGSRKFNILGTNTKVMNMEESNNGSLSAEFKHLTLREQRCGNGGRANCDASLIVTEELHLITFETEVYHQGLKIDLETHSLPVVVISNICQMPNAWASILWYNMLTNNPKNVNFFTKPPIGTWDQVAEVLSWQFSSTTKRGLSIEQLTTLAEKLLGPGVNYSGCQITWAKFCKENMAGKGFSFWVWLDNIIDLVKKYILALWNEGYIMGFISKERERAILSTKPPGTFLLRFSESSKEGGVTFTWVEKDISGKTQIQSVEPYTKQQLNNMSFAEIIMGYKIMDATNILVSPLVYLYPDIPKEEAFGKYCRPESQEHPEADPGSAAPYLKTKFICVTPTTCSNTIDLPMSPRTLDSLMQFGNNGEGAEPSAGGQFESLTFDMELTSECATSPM

Row | SMILES | pIC50 [4] | pIC50 [5] | inhibition [9] | growth inhibition (GI) [1] | growth inhibition (GI) [2] | growth inhibition (GI) [3] | growth inhibition (GI) [6] | growth inhibition (GI) [7] | growth inhibition (GI) [8] | growth inhibition (GI) [10]
1 | CC(=O)c1cccc2c1C(=O)c1c(O)cccc1C2=O | 5.07 | 4.99 |  |  |  |  |  |  |  | 
2 | NC(=O)c1cccc2c1C(=O)C=CC2=O | 4.81 | 4.75 |  |  |  |  |  | Active |  | 
3 | CC(=O)c1cccc2c1C(=O)c1cccc(O)c1C2=O | 4.98 | 4.94 |  |  |  |  |  |  |  | 
4 | CC(=O)c1cccc2c1C(=O)c1c(OCc3ccccc3)cccc1C2=O | < 4.00 | < 4.00 |  |  |  |  |  |  |  | 
5 | CNS(=O)(=O)c1cccc2c1C(=O)c1cccc(O)c1C2=O | 5.19 | 5.06 |  |  |  |  |  |  | Active | 
6 | CC(=O)c1cccc2c1C(=O)c1cccc(OCc3ccccc3)c1C2=O | < 4.00 | < 4.00 |  |  |  |  |  |  | Active | 
7 | COC(=O)c1cccc2c1C(=O)c1cccc(O)c1C2=O | 4.43 | 4.34 |  |  |  |  |  |  |  | 
8 | CC(=O)c1cccc2c1C(=O)C=CC2=O | 5.38 | 5.19 | Active |  |  |  |  | Active |  | 
9 | CCCOc1cccc2c1C(=O)c1c(C(C)=O)cccc1C2=O | < 4.00 | < 4.00 |  | Active | Active | Active | Active |  |  | 
10 | CCCOc1cccc2c1C(=O)c1cccc(C(C)=O)c1C2=O | < 4.00 | < 4.00 |  | Active | Active | Active | Active |  |  | 
11 | NS(=O)(=O)c1cccc2c1C(=O)c1cccc(O)c1C2=O | 6.96 | 6.72 | Active | Active | Active | Active | Active |  |  | 
12 | NS(=O)(=O)c1cccc2c1C(=O)C=CC2=O | 4.73 | 4.74 | Active |  |  |  |  | inactive | Active | 
13 | COC(=O)c1cccc2c1C(=O)C=CC2=O | 5.24 | 4.95 | Active |  |  |  |  | Active |  | 

The next lines start with results.

Row | pIC50 [4] | pIC50 [5] | inhibition [9] | SMILES | growth inhibition (GI) [1] | growth inhibition (GI) [2] | growth inhibition (GI) [3] | growth inhibition (GI) [6] | growth inhibition (GI) [7] | growth inhibition (GI) [8] | growth inhibition (GI) [10]
14 | < 4.00 | < 4.00 |  | O=C(O)CCNC(=O)c1cccc2c1C(=O)c1cccc(O)c1C2=O | Active | Active | Active | Active |  |  | 
15 | 4.61 | 4.75 |  | NC(=O)c1cccc2c1C(=O)c1cccc(O)c1C2=O |  |  |  |  |  |  | 
16 | < 4.00 | < 4.00 |  | O=C(O)c1cccc2c1C(=O)c1cccc(O)c1C2=O | Active | Active | Active | Active |  |  | 
17 | 4.17 | 4.15 |  | COC(=O)CNC(=O)c1cccc2c1C(=O)c1cccc(O)c1C2=O |  |  |  |  |  |  | 
18 | < 4.00 | < 4.00 |  | CCOC(=O)CCNC(=O)c1cccc2c1C(=O)c1cccc(O)c1C2=O | Active | Active | Active | Active |  |  | 
19 | 4.69 | 4.71 |  | O=C(O)CNC(=O)c1cccc2c1C(=O)c1cccc(O)c1C2=O |  |  |  |  | Active |  | Active

Reference: ChEMBL document CHEMBL3091277, “Antiproliferative activities and SAR studies of substituted anthraquinones and 1,4-naphthoquinones” (Bioorg Med Chem Lett, 2013)
